Data published in paper PMC8344021, “Discovery of Small Molecule Bak Activator for Lung Cancer Therapy” (Theranostics, 2021).

Experiments:
[1] = Toxicity in mice bearing A549 xenografts; format: in vivo, Nu/Nu nude mice; details: 28 days
Procedure: To assess whether BKA-073 induced suppression of tumor growth occurs through activation of Bak and apoptosis in vivo, representative samples from harvested tumor tissues were analyzed by cross-linking with BMH for Bak oligomerization or by immunohistochemistry (IHC) for active caspase 3 as described, [29], [47]. […] There were no decreases in white cells (WBC), red blood cells (RBC) and platelets (PLT) in blood.
Figure 5 Toxicity of BKA-073 in vivo. (A-C) Body weight (A), blood analysis (B) and H&E histology of various organs (C) from mice bearing A549 xenografts after treatment with increasing doses (0, 5, 10, 15mg/kg/d) of BKA-073 for 28 days. […]
Whole blood (250µL) was collected in EDTA-coated tubes via cardiac puncture of anesthetized
mice for hematology studies. […]

[2] = tested on: SCLC PDXs (TKO-2 and TKO-5); test: SCLC patient-derived xenografts, tumor growth; format: in vivo, Nu/Nu nude mice; details: 15mg/kg/d i.p., 2-4 weeks
Procedure: Six-week-old female Nu/Nu nude mice were purchased from Envigo (Indianapolis, IN) and housed under pathogen-free conditions in microisolator cages. The animal propagation protocol was approved by the Emory Institutional Animal Care and Use Committee (IACUC) and the Emory Animal Ethics Committee. 3×10^6 lung cancer cells were injected into subcutaneous tissue in the flank region of nude mice. The tumors were allowed to grow to an average volume of 150~200 mm^3 prior to initiation of therapy as previously described, [29]. Patient-derived xenografts (PDXs, TKO-002 and TKO-005) were established as part of an IRB-approved phase II co-clinical trial of arsenic trioxide in patients with relapsed SCLC who had failed standard platinum-based chemotherapy. Tumor samples were obtained by image-guided biopsy and were directly implanted into Nu/Nu nude mice without intervening propagation in plastic culture plates. Direct serial propagation of growing tumor occurred for up to 5 generations. The animal propagation protocol was approved by the Emory IACUC and the Emory Animal Ethics Committee. Mice with SCLC and NSCLC xenografts or PDXs were treated with BKA-073 intraperitoneally (i.p.) or venetoclax orally as indicated. During treatment, tumor volume (V) was measured by caliper measurements once every two days as described previously. Mice were euthanized by CO2 inhalation at the end of treatment. […]

[3] = tested on: LSL-KRAS G12D LKB1 fl/fl (KL) mice lung tumors; test: Mutant KRAS-driven lung cancer GEMM (KL mice); format: in vivo, mouse; details: 15 mg/kg/d i.p.
Procedure: LSL-KRAS^G12D LKB1^fl/fl (KL) were generated as previously described [30]-[33]. All studies were performed on protocols approved by the Emory University IACUC. Six weeks after cre-adenovirus infection, KL mice were treated with BKA-073 intraperitoneally (i.p) for 48 days. Mice were euthanized with CO2 asphyxiation. After lung perfusion with PBS, the left lung lobes were harvested from mice in control and BKA-073 treated groups and immediately fixed in 10% neutral buffered formalin (Fisher Scientific, Kalamazoo, MI), horizontally cut into three equal parts and embedded in paraffin blocks. Three parts of lung tissues representing different regions of the lung were vertically put into paraffin blocks for hematoxylin-eosin (H&E) staining. Lung tissue samples were sectioned at 3 µm three times for placement of slides and stained with H&E. H&E stained samples were scanned using Nano Zoomer 2.0-HT (Hamamatsu, Japan) and images were analyzed using ImageScope viewing software (Leica Biosystems, Buffalo Grove, IL). Tumor numbers were counted under a microscope and tumor area was quantified using Openlab modular imaging software (PerkinElmer, Waltham, MA) as previously described, [32].
KRAS is the most commonly mutated oncogene, yet no effective targeted therapies exist for KRAS-mutant cancers. […] Since BKA-073 is able to induce apoptosis by activation of Bak via facilitating its oligomerization in vitro and in vivo (Figures 1, 2 and 4), we were interested in testing whether BKA-073 is effective for the treatment of mutant KRAS-driven cancer. To assess the potency of BKA-073 in KRAS mutant-driven lung cancer, lox-stop-lox (LSL)-KRAS^G12D LKB1^fl/fl (i.e. KL) mice were generated and bred out as previously described, [31], [50], [51]. These mice contain a KRAS^G12D LSL knock-in allele and a floxed allele of LKB1 (LKB1^fl/fl), [31]. Primary lung adenocarcinoma was detectable as early as 6 weeks after intranasal administration of 5×10^6 pfu adenovirus expressing Cre recombinase (AdeCre) in KRAS^G12D LKB1^fl/fl (KL) mice. […] After treatment for 48 days, KL mice were euthanized with CO2 asphyxiation. Lungs with tumor and normal lung tissues were collected for further analysis. To quantify tumor burden and tumor multiplicity in mice, H&E-stained lungs were imaged with morphometric software to quantify the surface area composed of tumor as opposed to normal tissue of representative cross-sections of each lung lobe for each mouse as previously described [31]-[33]. […] There were 4 deaths out of 6 mice in the control group versus 2 death out of 6 mice in the BKA-073 treatment group […], calculated up to 48 days before euthanization.

In the case of COc1ccc2nc3ccccc3c(NCCNCC(C)O)c2c1 (stereo not shown) [BKA-073], the body weight ([1]; 5, 10, 15mg/kg/d i.p.) is reported as “No weight loss”, the “kidney (BUN) and liver (ALT and AST) function” value ([1]; 5, 10, 15mg/kg/d i.p.) is reported as “in the normal range” and the “white cells (WBC), red blood cells (RBC) and platelets (PLT) in blood” value ([1]; 5, 10, 15mg/kg/d i.p.) is reported as “no decreases”. The tolerability ([1]; 5-15mg/kg/d i.p.) was “well tolerated without significant toxicity”, the “histopathology of normal tissues (heart, liver, lung, brain, spleen, kidney, intestine)” value ([1]; 5~15mg/kg/d i.p.) was “no evidence of normal tissue toxicities” and the tumor growth [2] was “potently suppressed tumor growth”. For the same compound, the “tumor burden in the lung” value ([3]; 48 days) was “significant reduction”, the “tumor multiplicity in the lung” value ([3]; 48 days) was “significant reduction” and the “deaths out of 6 mice” value ([3]; up to 48 days, control 4 of 6, p < 0.01) was 2. The survival ([3]; vs control group) was “significantly prolonged survival”.
